Data on 19 compounds can be found in US7064120B2, “Tricyclic pyridyl carboxamides and derivatives thereof tocolytic oxytocin receptor antagonists” (Wyeth, priority 2001, dated 2006).

This assay deals with T1, human vasopressin V2 receptor subtype (Homo sapiens, UniProt P30518).
T1 construct: host or cells: CHO cells, stably transfected (pZeoSV vector)
T1 sequence (P30518 whole entry): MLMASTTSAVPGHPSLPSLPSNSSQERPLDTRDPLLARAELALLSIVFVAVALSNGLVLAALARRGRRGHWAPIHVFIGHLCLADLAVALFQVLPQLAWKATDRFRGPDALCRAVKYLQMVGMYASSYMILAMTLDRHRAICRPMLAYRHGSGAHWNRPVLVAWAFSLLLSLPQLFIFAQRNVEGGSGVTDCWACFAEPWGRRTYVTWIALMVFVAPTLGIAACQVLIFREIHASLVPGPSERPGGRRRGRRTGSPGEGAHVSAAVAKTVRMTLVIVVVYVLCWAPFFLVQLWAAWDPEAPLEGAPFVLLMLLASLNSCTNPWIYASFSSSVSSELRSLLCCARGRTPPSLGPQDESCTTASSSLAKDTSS
The assay can be described thus: Vasopressin binding in CHO cell membranes expressing human vasopressin V2 subtype receptors ([3H]arginine vasopressin radioligand binding). As to conditions: 100 nM. Here is the method:
Vasopressin Binding in Chinese Hamster Ovary Cell Membranes Expressing Human Vasopressin V2 Subtype Receptors
Chinese Hamster Ovary (CHO) cells stably transfected with the human V2 subtype receptors were obtained from M. Thibonnier, Case Western Reserve University School of Medicine, Cleveland, Ohio.
The trypsin is removed by aspiration and the cells dislodged by tapping. Cell Culture medium (e.g. 30 mL for 1:30 split) is immediately added and mixed well to inactivate trypsin. 1 mL of detached cells is added to new culture flasks containing fresh Cell Culture medium (e.g. into 25 mL per T-150 flask), and mixed gently. The cells are incubated at 37° C. in 5% CO2. The medium is changed at 3 to 4 day interval (or as appropriate). […] All steps are done under sterile conditions.
The cells are washed twice gently with Hank's Balanced Salt solution (e.g. use 10 mL per T-150 flask). […] The contents are transferred to centrifuge tubes (50 mL) kept in ice bath. All subsequent steps are done at 4° C. The tubes are centrifuged at 300×g for 15 min (1380 rpm on SORVAL, Model RT6000D, using the rotor for 50 mL tubes). The supernatant is discarded and the cells suspended in homogenizing buffer(10 mM Tris-HCl containing 0.25 M sucrose and 1 mM EDTA, pH 7.4) ensuring that the volume of the buffer is about ten times the volume of the cell pellet. The cells are pooled into a centrifuge tube (50 mL) and homogenized with Polytron at setting 6 for 10 sec. The homogenate is transferred into a Potter-Elvjehm homogenizer and homogenized with 3 strokes. The homogenate is centrifuged at 1500×g for 60 min at 4° C. (3100 rpm using SORVAL, model RT6000D, using the rotor for 50 mL tubes). The pellet is discarded. The supernatant is centrifuged at 100,000×g for 60 min. at 4° C. (Beckman L8-80M ultracentrifuge; spin at 37,500 rpm with rotor type 70 Ti for 50 mL tubes; 38,000 rpm with type 80Ti for 15 mL tubes; or 35,800 rpm with rotor type 45Ti). The supernantant is discarded and the pellet suspended in 3 to 4 mL of Tris buffer (50 mM TRIS-HCl, pH 7.4). The protein content is estimated by the Bradford or Lowry method. The volume of the membrane suspension is adjusted with the membrane buffer (50 mM Tris-HCl containing 0.1% BSA and 0.1 mM PMSF) to give 3.0 mg/mL (or as appropriate) of protein. The membranes are aliquoted and stored at −70° C.
In wells of a 96-well format microtiter plate, is added 90, 110 or 130 μL (to make up a final volume of 200 μL) of assay buffer containing 50 mM of Tris-HCl (pH 7.4), […], 1 mg % aprotinin, 1 mg % leupeptin, 2 mg % 1,10-phenanthroline, 10 mg % trypsin inhibitor, and 0.1 mM PMSF. The inhibitors are added on the day of the experiment. The components are mixed at room temperature, and then kept in ice bath following adjustment of the pH to 7.4. […] For vasopressin and other peptide ligands 20 μL of 50% DMSO is added and the assay buffer volume is adjusted accordingly. To each well is added 50 μL of frozen membrane suspension thawed immediately prior to use and diluted in assay buffer to the required concentration (equivalent to 25 to 50 μg of protein/well as needed). 20 μL of 8 nM [^3H]arginine vasopressin ligand in the assay buffer, prepared just before use is added and incubated at room temperature for 60 min. shaking the plate on a mechanical shaker for the first 15 min. The incubation is stopped by rapid filtration of the plate contents followed by wash with ice-cold buffer (50 mM Tris-HCl, pH 7.4) using a cell harvester (Tomtek and Printed filtermat-B filter paper). The filter paper is thoroughly dried (7–12 min. in a microwave oven) and impregnated with MeltiLex B/H melt-on scintillation wax sheets and the radioactivity counted in a betaplate scintillation counter.
Binding data is either reported as percent inhibition at a certain concentration or if an IC50 was calculated, as a nanomolar concentration.
For the compound `COc1cc(-c2ccccc2C)c(Cl)cc1C(=O)N1Cc2ccc(C(=O)NCCc3ccccn3)n2Cc2ccccc21` [Example 55, 10-[(6-Chloro-3-methoxy-2′-methyl-[1,1′-biphenyl]-4-yl)carbonyl]-N-[2-(2-pyridinyl)ethyl]-10,11-dihydro-5H-pyrrolo[2,1-c][1,4]benzodiazepine-3-carboxamide], the inhibition (usually the drop in the measured response relative to a control, in per cent) at 0.1 µM was found to be 5%. Consider `COc1ccccc1-c1ccc(C(=O)N2Cc3ccc(C(=O)NCc4cccnc4)n3Cc3ccccc32)cc1` [Example 39, 10-[(2′-Methoxy-[1,1′-biphenyl]-4-yl)carbonyl]-N-(3-pyridinylmethyl)-10,11-dihydro-5H-pyrrolo[2,1-c][1,4]benzodiazepine-3-carboxamide], for which the inhibition at 0.1 µM was found to be 11%. Same read-out and setting: as for `COc1cc(C(=O)N2Cc3ccc(C(=O)N(C)CCc4ccncc4)n3Cc3ccccc32)ccc1-c1ccccc1C` [Example 131, 10-[(2-Methoxy-2′-methyl-[1,1′-biphenyl]-4-yl)carbonyl]-N-methyl-N-[2-(4-pyridinyl)ethyl]-10,11-dihydro-5H-pyrrolo[2,1-c][1,4]benzodiazepine-3-carboxamide], the figure is -5%. Take `COc1ccccc1-c1ccc(C(=O)N2Cc3ccc(C(=O)N4CCCCC4c4cccnc4)n3Cc3ccccc32)cc1C` (stereo not shown) [Example 138, {10-[(2′-Methoxy-2-methyl-[1,1′-biphenyl]-4-yl)carbonyl]-10,11-dihydro-5H-pyrrolo[2,1-c][1,4]benzodiazepin-3-yl}[2-(3-pyridinyl)-1-piperidinyl]methanone]: the inhibition at 0.1 µM was determined as 42%. Same read-out and setting: the result for `COc1cc(C(=O)N2Cc3ccc(C(=O)N(C)Cc4cccnc4)n3Cc3ccccc32)ccc1-c1ccccc1C` [Example 106, 10-[(2-Methoxy-2′-methyl-[1,1′-biphenyl]-4-yl)carbonyl]-N-methyl-N-(3-pyridinylmethyl)-10,11-dihydro-5H-pyrrolo[2,1-c][1,4]benzodiazepine-3-carboxamide] reads -10%; that for `Cc1ccccc1-c1ccc(C(=O)N2Cc3ccc(C(=O)N4CCN(c5ccncc5)CC4)n3Cc3ccccc32)cc1` [Example 117, {10-[(2′-Methyl-[1,1′-biphenyl]-4-yl)carbonyl]-10,11-dihydro-5H-pyrrolo[2,1-c][1,4]benzodiazepin-3-yl}[4-(4-pyridinyl)-1-piperazinyl]methanone], 4%. On the same count and under the same terms, as for `COc1ccccc1-c1ccc(C(=O)N2Cc3ccc(C(=O)N4CCN(c5ccncc5)CC4)n3Cc3ccccc32)cc1OC` [Example 122, {10-[(2,2′-Dimethoxy-[1,1′-biphenyl]-4-yl)carbonyl]-10,11-dihydro-5H-pyrrolo[2,1-c][1,4]benzodiazepin-3-yl}[4-(4-pyridinyl)-1-piperazinyl]methanone], the figure is -10%; as for `COc1ccccc1-c1ccc(C(=O)N2Cc3ccc(C(=O)N4CCCCC4c4cccnc4)n3Cc3ccccc32)cc1OC` (stereo not shown) [Example 141, {10-[(2,2′-Dimethoxy-[1,1′-biphenyl]-4-yl)carbonyl]-10,11-dihydro-5H-pyrrolo[2,1-c][1,4]benzodiazepin-3-yl}[2-(3-pyridinyl)-1-piperidinyl]methanone], 40%; as for `COc1cc(C(=O)N2Cc3ccc(C(=O)NCCc4ccccn4)n3Cc3ccccc32)ccc1-c1ccccc1C` [Example 54, 10-[(2-Methoxy-2′-methyl-[1,1′-biphenyl]-4-yl)carbonyl]-N-[2-(2-pyridinyl)ethyl]-10,11-dihydro-5H-pyrrolo[2,1-c][1,4]benzodiazepine-3-carboxamide], 18%. The same measure, in the same setting: the result for `COc1cc(C(=O)N2Cc3ccc(C(=O)NCc4cccnc4)n3Cc3ccccc32)ccc1-c1ccccc1C` [Example 41, 10-[(2-Methoxy-2′-methyl-[1,1′-biphenyl]-4-yl)carbonyl]-N-(3-pyridinylmethyl)-10,11-dihydro-5H-pyrrolo[2,1-c][1,4]benzodiazepine-3-carboxamide] reads 16%. For the compound `COc1cccc(-c2cc(OC)c(C(=O)N3Cc4ccc(C(=O)NCc5ccccn5)n4Cc4ccccc43)cc2Cl)c1` [Example 30, 10-[(6-Chloro-3,3′-dimethoxy-[1,1′-biphenyl]-4-yl)carbonyl]-N-(2-pyridinylmethyl)-10,11-dihydro-5H-pyrrolo[2,1-c][1,4]benzodiazepine-3-carboxamide], the inhibition at 0.1 µM worked out at 14%.

Take `O=C(NCCc1ccccn1)c1ccc2n1Cc1ccccc1N(C(=O)c1ccc(-c3cccc4ccccc34)cc1Cl)C2` [Example 60, 10-[2-Chloro-4-(naphthalen-1-yl)benzoyl]-N-[2-(2-pyridinyl)ethyl]-10,11-dihydro-5H-pyrrolo[2,1-c][1,4]benzodiazepine-3-carboxamide]: the inhibition at 0.1 µM was determined as 15%. On the same count and under the same terms, the result for `CN(CCc1ccncc1)C(=O)c1ccc2n1Cc1ccccc1N(C(=O)c1ccc(-c3cccc4ccccc34)cc1Cl)C2` [Example 136, 10-[2-Chloro-4-(naphthalen-1-yl)benzoyl]-N-methyl-N-[2-(4-pyridinyl)ethyl]-10,11-dihydro-5H-pyrrolo[2,1-c][1,4]benzodiazepine-3-carboxamide] reads 19%; that for `Cc1cc(C(=O)N2Cc3ccc(C(=O)NCc4cccnc4)n3Cc3ccccc32)ccc1-c1ccccc1C(F)(F)F` [Example 48, 10-{[2-Methyl-2′-trifluoromethyl-[1,1′-biphenyl]-4-yl]carbonyl}-N-(3-pyridinylmethyl)-10,11-dihydro-5H-pyrrolo[2,1-c][1,4]benzodiazepine-3-carboxamide], 9%; that for `COc1cccc(-c2ccc(C(=O)N3Cc4ccc(C(=O)N(C)CCc5ccncc5)n4Cc4ccccc43)cc2OC)c1` [Example 135, 10-[(2,3′-Dimethoxy-[1,1′-biphenyl]-4-yl)carbonyl]-N-methyl-N-[2-(4-pyridinyl)ethyl]-10,11-dihydro-5H-pyrrolo[2,1-c][1,4]benzodiazepine-3-carboxamide], 35%. Still for that read-out and setting: the result for `COc1cccc(-c2ccc(C(=O)N3Cc4ccc(C(=O)NCc5ccccn5)n4Cc4ccccc43)cc2OC)c1` [Example 33, 10-[(2,3′-Dimethoxy-[1,1′-biphenyl]-4-yl)carbonyl]-N-(2-pyridinylmethyl)-10,11-dihydro-5H-pyrrolo[2,1-c][1,4]benzodiazepine-3-carboxamide] reads 21%; that for `COc1ccccc1-c1ccc(C(=O)N2Cc3ccc(C(=O)NCCc4ccccn4)n3Cc3ccccc32)cc1` [Example 52, 10-[(2′-Methoxy-[1,1′-biphenyl]-4-yl)carbonyl]-N-[2-(2-pyridinyl)ethyl]-10,11-dihydro-5H-pyrrolo[2,1-c][1,4]benzodiazepine-3-carboxamide], 8%. Turning to `Cc1cc(C(=O)N2Cc3ccc(C(=O)NCCc4ccccn4)n3Cc3ccccc32)ccc1-c1ccccc1C(F)(F)F` [Example 61, 10-{[2-Methyl-2′-trifluoromethyl=[1,1′-biphenyl]-4-yl]carbonyl}-N-[2-(2-pyridinyl)ethyl]-10,11-dihydro-5H-pyrrolo[2,1-c][1,4]benzodiazepine-3-carboxamide], the “V2 % inhibition @ 100 nM” value is listed as 14%.

Regarding `Cc1ccccc1-c1ccc(C(=O)N2Cc3ccc(C(=O)NCCc4ccccn4)n3Cc3ccccc32)cc1` [Example 53, 10-[(2′-Methyl-[1,1′-biphenyl]-4-yl)carbonyl]-N-[2-(2-pyridinyl)ethyl]-10,11-dihydro-5H-pyrrolo[2,1-c][1,4]benzodiazepine-3-carboxamide], the inhibition at 0.1 µM is 13%.
